According to patent US20190382432A1 (Synbias Pharma AG, priority 2013, published 2019):
Structures can show the parent of a compound that is named as a salt. Marks after values point to notes of the source that are not given here.

Key:
Type in all cases: physicochemical
[1] = Thermostability under stress conditions (storage at 100 °C for one month), HPLC
Description: Sample S was prepared according to the present invention, as described in Example 3 above. Sample M1 was prepared according to Example 1 of WO 2012/163508 A1, as described in Example 7 above. Finally, Sample M2 was prepared according to Example 2 of WO 2012/163508 A1, as described in Example 7 above.
The samples were exposed to a temperature of 100° C. for the time period (in weeks) indicated. The testing was performed as described in the ICH Guideline Q1A (R2) (cf. above). The amount of the degradation product (i.e. doxorubicinone) produced as well as those of various impurities (i.e., doxorubicin and four different impurities of yet unknown identity; all given in % (w/w); “n.d.”=not determined) was determined by HPCL analysis (“LT”=less than).

[2] = Particle size distribution by laser diffraction analysis (Mastersizer 2000); conditions: wet laser diffraction in acetone
Description: Laser diffraction analysis was performed in form of wet laser diffraction in acetone: 1750 rpm, 3×20 s cycle time, 60 s background time, without sonication, and 5 min stirring time using a Mastersizer 2000 Particle Size Analyzer (Malvern Instruments Ltd., Malvern, UK) according to the manufacturer's instructions.

[3] = Thermostability on storage at 25, 40 and 100 °C per ICH Q1A (R2), HPLC
Description: HPLC and GC analyses were performed according to standard protocols.
The testing was performed as described in the ICH guidelines (cf. inter alia ICH Guideline Q1A (R2)).

[4] = 25 °C, 12 months, hydrochloride
[5] = 25 °C, 24 months, hydrochloride

## COc1cccc2c1C(=O)c1c(O)c3c(c(O)c1C2=O)C[C@@](O)(C(=O)CO)C[C@@H]3O[C@H]1C[C@H](N)[C@H](O)[C@H](C)O1 [Example M1, epirubicin hydrochloride]
[1]; 0 weeks
  Doxorubicin (NMT 1%): 0.29 % (w/w)
  Doxorubicinone (Aglycone) (NMT 1%): < 0.05 % (w/w)
  Total Impurities (NMT 2%): 0.30 % (w/w)
[1]; 1 week, hydrochloride
  Doxorubicin (NMT 1%): 0.27 % (w/w)
  Doxorubicinone (Aglycone) (NMT 1%): 0.52 % (w/w)
  Total Impurities (NMT 2%): 1.20 % (w/w)
  Unknown impurity RRT 1.2 (NMT 0.15%): 0.06 % (w/w)
  Unknown impurity RRT 1.6 (NMT 0.15%): 0.08 % (w/w)
  Unknown impurity RRT 1.7 (NMT 0.15%): 0.12 % (w/w)
[1]; 2 weeks
  Doxorubicin (NMT 1%): 0.32 % (w/w)
[1]; 2 weeks, hydrochloride
  Doxorubicinone (Aglycone) (NMT 1%): 0.57 % (w/w)
  Total Impurities (NMT 2%): 1.60 % (w/w)
  Unknown impurity RRT 1.1 (NMT 0.15%): 0.11 % (w/w)
  Unknown impurity RRT 1.2 (NMT 0.15%): 0.13 % (w/w)
  Unknown impurity RRT 1.6 (NMT 0.15%): 0.18 % (w/w)
  Unknown impurity RRT 1.7 (NMT 0.15%): 0.16 % (w/w)
[1]; 3 weeks, hydrochloride
  Doxorubicin (NMT 1%): 0.33 % (w/w)
  Doxorubicinone (Aglycone) (NMT 1%): 0.61 % (w/w)
  Total Impurities (NMT 2%): 1.80 % (w/w)
  Unknown impurity RRT 1.1 (NMT 0.15%): 0.14 % (w/w)
  Unknown impurity RRT 1.2 (NMT 0.15%): 0.14 % (w/w)
  Unknown impurity RRT 1.6 (NMT 0.15%): 0.24 % (w/w)
  Unknown impurity RRT 1.7 (NMT 0.15%): 0.20 % (w/w)
[1]; 4 weeks
  Doxorubicin (NMT 1%): 0.33 % (w/w)
[1]; 4 weeks, hydrochloride
  Doxorubicinone (Aglycone) (NMT 1%): 0.61 % (w/w)
  Total Impurities (NMT 2%): 2.3* % (w/w)
  Total amount of unknown impurities: 1.36 % (w/w)
  Unknown impurity RRT 1.1 (NMT 0.15%): 0.18 % (w/w)
  Unknown impurity RRT 1.2 (NMT 0.15%): 0.18 % (w/w)
  Unknown impurity RRT 1.6 (NMT 0.15%): 0.46 % (w/w)
  Unknown impurity RRT 1.7 (NMT 0.15%): 0.31 % (w/w)
[2]; listed as Sample 1, hydrochloride
  D(v/0.5), mean diameter based on the volume of the particles: 4.62 μm

## COc1cccc2c1C(=O)c1c(O)c3c(c(O)c1C2=O)C[C@@](O)(C(=O)CO)C[C@@H]3O[C@H]1C[C@H](N)[C@H](O)[C@H](C)O1 [epirubicin hydrochloride trihydrate, epirubicin hydrochloride]
[3]; 25 °C, 0 months
  Doxorubicinone: LT 0.05 % (w/w)
[3]; 25 °C, 0 months, hydrochloride
  Assay (intact epirubicin hydrochloride): 98.8 % (w/w)
[3]; 25 °C, 1 month, hydrochloride
  Assay (intact epirubicin hydrochloride): 98.7 % (w/w)
  Doxorubicinone: 0.06 % (w/w)
[3]; 25 °C, 3 months, hydrochloride
  Assay (intact epirubicin hydrochloride): 98.7 % (w/w)
  Doxorubicinone: 0.09 % (w/w)
[3]; 25 °C, 6 months, hydrochloride
  Assay (intact epirubicin hydrochloride): 98.4 % (w/w)
  Doxorubicinone: 0.22 % (w/w)
[3]; [4]
  Assay (intact epirubicin hydrochloride): 98.5 % (w/w)
  Doxorubicinone: 0.42 % (w/w)
[3]; [5]
  Assay (intact epirubicin hydrochloride): 98.0 % (w/w)
  Doxorubicinone: 0.62 % (w/w)
[3]; 40 °C, 0 months
  Doxorubicinone: LT 0.05 % (w/w)
[3]; 40 °C, 0 months, hydrochloride
  Assay (intact epirubicin hydrochloride): 98.8 % (w/w)
[3]; 40 °C, 1 month, hydrochloride
  Assay (intact epirubicin hydrochloride): 98.4 % (w/w)
  Doxorubicinone: 0.22 % (w/w)
[3]; 40 °C, 3 months, hydrochloride
  Assay (intact epirubicin hydrochloride): 98.2 % (w/w)
  Doxorubicinone: 0.45 % (w/w)
[3]; 40 °C, 6 months, hydrochloride
  Assay (intact epirubicin hydrochloride): 98.0 % (w/w)
  Doxorubicinone: 0.78* % (w/w)
[3]; 100 °C, 0 months
  Doxorubicinone: LT 0.05 % (w/w)
[3]; 100 °C, 0 months, hydrochloride
  Assay (intact epirubicin hydrochloride): 98.8 % (w/w)
[3]; 100 °C, 1 month, hydrochloride
  Assay (intact epirubicin hydrochloride): 89.5 % (w/w)
  Doxorubicinone: 4.7** % (w/w)
[3]; within six months storage at 25 °C
  Degradation on storage, in words: significant degradation

## COc1cccc2c1C(=O)c1c(O)c3c(c(O)c1C2=O)C[C@@](O)(C(=O)CO)C[C@@H]3O[C@H]1C[C@H](N)[C@H](O)[C@H](C)O1 [Example M2, epirubicin hydrochloride]
[1]; 0 weeks
  Doxorubicin (NMT 1%): 0.29 % (w/w)
  Doxorubicinone (Aglycone) (NMT 1%): < 0.05 % (w/w)
  Total Impurities (NMT 2%): 0.30 % (w/w)
[1]; 1 week, hydrochloride
  Doxorubicin (NMT 1%): 0.27 % (w/w)
  Doxorubicinone (Aglycone) (NMT 1%): 0.54 % (w/w)
  Total Impurities (NMT 2%): 1.30 % (w/w)
  Unknown impurity RRT 1.2 (NMT 0.15%): 0.12 % (w/w)
  Unknown impurity RRT 1.6 (NMT 0.15%): 0.12 % (w/w)
  Unknown impurity RRT 1.7 (NMT 0.15%): 0.14 % (w/w)
[1]; 2 weeks
  Doxorubicin (NMT 1%): 0.32 % (w/w)
[1]; 2 weeks, hydrochloride
  Doxorubicinone (Aglycone) (NMT 1%): 0.59 % (w/w)
  Total Impurities (NMT 2%): 1.70 % (w/w)
  Unknown impurity RRT 1.1 (NMT 0.15%): 0.14 % (w/w)
  Unknown impurity RRT 1.2 (NMT 0.15%): 0.12 % (w/w)
  Unknown impurity RRT 1.6 (NMT 0.15%): 0.21 % (w/w)
  Unknown impurity RRT 1.7 (NMT 0.15%): 0.18 % (w/w)
[1]; 3 weeks, hydrochloride
  Doxorubicin (NMT 1%): 0.32 % (w/w)
  Doxorubicinone (Aglycone) (NMT 1%): 0.61 % (w/w)
  Total Impurities (NMT 2%): 1.80 % (w/w)
  Unknown impurity RRT 1.1 (NMT 0.15%): 0.13 % (w/w)
  Unknown impurity RRT 1.2 (NMT 0.15%): 0.13 % (w/w)
  Unknown impurity RRT 1.6 (NMT 0.15%): 0.27 % (w/w)
  Unknown impurity RRT 1.7 (NMT 0.15%): 0.22 % (w/w)
[1]; 4 weeks
  Doxorubicin (NMT 1%): 0.33 % (w/w)
[1]; 4 weeks, hydrochloride
  Doxorubicinone (Aglycone) (NMT 1%): 0.60 % (w/w)
  Total Impurities (NMT 2%): 2.1* % (w/w)
  Total amount of unknown impurities: 1.1 % (w/w)
  Unknown impurity RRT 1.1 (NMT 0.15%): 0.21 % (w/w)
  Unknown impurity RRT 1.2 (NMT 0.15%): 0.16 % (w/w)
  Unknown impurity RRT 1.6 (NMT 0.15%): 0.39 % (w/w)
  Unknown impurity RRT 1.7 (NMT 0.15%): 0.26 % (w/w)
[2]; listed as Sample 2, hydrochloride
  D(v/0.5), mean diameter based on the volume of the particles: 9.04 μm
